# Assay: Maximum tolerated dose study of free AZD1080
# Type: in vivo
# Details: one-time tail vein injection, 5 to 25.3 mg/kg, weights recorded 14 days; listed as free AZD1080
# Experimental: Dotted lines represent thresholds for toxicity (−15%) and weight loss requiring euthanasia (20%). Body weight changes are relative to individual mouse initial weights. N=4 mice per group, error bars are SEM.
# In order to establish a safe working concentration for murine experiments on AZD1080, we used a previously established dose of 5 mg/kg for the treatment of an Alzheimer's-like disease process in rats (29) for planning of a maximum tolerated dose assessment (FIG. 14). […] This prompted us to continue the use of the established dose of 5 mg/kg, for a total of three injections in our animal studies.
# The maximum tolerated dose of AZD1080 was determined using a protocol from the National Cancer Institute (72). C57BL/6 mice were injected with AZD1080 solutions via tail vein (100 μL) and weights were recorded daily for 14 days. AZD1080 was solubilized in 30% PEG400, 0.5% Tween-80, 5% polyethylene, and 64.5% 1×PBS. The injected amounts of AZD1080 were 5, 7.5, 11.25, 16.87, or 25.31 mg/kg per mouse, n=4 mice per group.
compound,measurement,value
N#Cc1ccc2[nH]c(O)c(-c3ccc(CN4CCOCC4)cn3)c2c1 [AZD1080],"tolerability on dose escalation (weight loss, behavior, mortality, adverse events)","devoid of significant weight loss, abnormal behavior or posture, mortality or other adverse events"

# — patent publication US20230241000A1, “GSK3 INHIBITOR-LOADED NANO FORMULATIONS AS A CANCER IMMUNOTHERAPEUTIC” (The Regents of the University of California, priority 2020, published 2023)
